Measured values reported in ChEMBL document CHEMBL4725284, “Junceellolide B, a novel inhibitor of Hepatitis B virus” (Bioorg Med Chem, 2020).

Assays:
Hepatitis B virus = assay: Antiviral activity against HBV infected in human HepAD38 cells assessed as inhibition of viral DNA at 10 uM incubated for 4 days by SYBR green dye based RT-PCR analysis relative to control; type: functional; settings: HePAD38, 96 h, time 4 day
[1] = Cytotoxicity against human HepG2 cells assessed as cell viability incubated for 72 hrs by MTT assay; type: cell-based
[2] = Cytotoxicity against human HePAD38 cells assessed as cell viability incubated for 72 hrs by MTT assay; type: cell-based

Compound | inhibition at 10 µM (Hepatitis B virus) | CC50 at 72 h [1] | CC50 at 72 h [2]
CC(=O)O[C@H]1CC[C@]2(CO2)[C@@H]2[C@H](OC(C)=O)[C@@]3(O)[C@H](/C=C(/C)[C@H](OC(C)=O)C[C@H](OC(C)=O)[C@@]12C)OC(=O)[C@@H]3C [11ALPHA,20ALPHA-EPOXYJUNCEELLOLIDE] | 3% | > 100 µM | > 100 µM
C=C1[C@H](Cl)[C@@H]2OC(=O)[C@H](C)[C@]23O[C@@H]1[C@@H](O)[C@H](OC(C)=O)[C@@]1(C)[C@@H](OC(C)=O)[C@@H](OC(C)=O)C[C@]2(CO2)[C@@H]1[C@@H]3OC(C)=O | 31% | > 100 µM | > 100 µM
C=C1/C=C\[C@H](OC(=O)COC(C)=O)[C@@]2(C)[C@@H](OC(C)=O)CC[C@]3(CO3)[C@@H]2[C@H](OC(C)=O)[C@]2(O)[C@@H](C)C(=O)O[C@H]2[C@H]1Cl | 0% | > 100 µM | > 100 µM
CC(=O)OCC1=C/[C@@H]2OC(=O)[C@H](C)[C@@]2(O)[C@@H](OC(C)=O)[C@H]2[C@]3(CC[C@H](OC(C)=O)[C@]2(C)[C@@H](OC(C)=O)/C=C\1)CO3 | 0% | > 100 µM | > 100 µM
CC(=O)OCC(=O)O[C@H]1/C=C\C(CCl)=C/[C@@H]2OC(=O)[C@H](C)[C@@]2(O)[C@@H](OC(C)=O)[C@H]2[C@@](O)(CCl)CC[C@H](OC(C)=O)[C@]12C | 58% | > 100 µM | > 100 µM
C=C1CC[C@H](OC(C)=O)[C@]2(C)[C@@H](OC(C)=O)C[C@@H](OC(C)=O)C(=C)[C@H](Cl)[C@@H]3OC(=O)[C@H](C)[C@@]3(O)[C@@H](OC(C)=O)[C@@H]12 | 63% | > 100 µM | > 100 µM
CC(=O)OCC1=C/[C@@H]2OC(=O)[C@H](C)[C@@]2(O)[C@@H](OC(C)=O)[C@H]2[C@]3(CC[C@H](OC(C)=O)[C@]2(C)[C@@H](OC(=O)COC(=O)CC(C)C)/C=C\1)CO3 | 0% | > 100 µM | > 100 µM
C=C1/C=C\[C@H](OC(=O)COC(=O)CC(C)C)[C@@]2(C)[C@@H](OC(C)=O)CC[C@]3(CO3)[C@@H]2[C@H](OC(C)=O)[C@]2(O)[C@@H](C)C(=O)O[C@H]2[C@H]1Cl [FRAJUNOLIDE G] | 0% | > 100 µM | > 100 µM
C=C1[C@H](OC(C)=O)C[C@H](OC(C)=O)[C@@]2(C)[C@@H](OC(C)=O)CC[C@]3(CO3)[C@@H]2[C@H](OC(C)=O)[C@]2(O)[C@@H](C)C(=O)O[C@H]2[C@H]1Cl | 39% | > 100 µM | > 100 µM
C=C1[C@H](OC(C)=O)C[C@H](OC(=O)CC)[C@@]2(C)[C@@H](OC(C)=O)CC[C@]3(CO3)[C@@H]2[C@H](OC(C)=O)[C@]2(O)[C@@H](C)C(=O)O[C@H]2[C@H]1Cl | 0% | > 100 µM | > 100 µM
C=C1CC[C@H](OC(C)=O)[C@]2(C)[C@@H](OC(C)=O)/C=C/C(COC(C)=O)=C\[C@@H]3OC(=O)[C@H](C)[C@@]3(O)[C@@H](OC(C)=O)[C@@H]12 | 0% | > 100 µM | > 100 µM
CC(=O)OC/C1=C/[C@@H]2OC(=O)[C@H](C)[C@@]2(O)[C@@H](OC(C)=O)[C@H]2[C@]3(CC[C@H](OC(C)=O)[C@]2(C)[C@@H](OC(C)=O)C[C@H]1OC(C)=O)CO3 | 0% | > 100 µM | > 100 µM
C=C1CC[C@H](OC(C)=O)[C@]2(C)[C@@H](OC(C)=O)C[C@@H](OC(C)=O)/C(C)=C\[C@@H]3OC(=O)[C@H](C)[C@@]3(O)[C@@H](OC(C)=O)[C@@H]12 | 31% | > 100 µM | > 100 µM
C=C1/C=C/[C@H](OC(C)=O)[C@@]2(C)[C@@H](OC(C)=O)C[C@H](OC(C)=O)[C@]3(CO3)[C@@H]2[C@H](OC(C)=O)[C@]2(O)[C@@H](C)C(=O)O[C@H]2[C@H]1Cl | 1% | > 100 µM | > 100 µM
C=C1[C@H](Cl)[C@@H]2OC(=O)[C@H](C)[C@]23O[C@]1(O)C[C@H](OC(C)=O)[C@@]1(C)[C@@H](OC(C)=O)CC[C@]2(CO2)[C@@H]1[C@@H]3OC(C)=O | 4% | > 100 µM | > 100 µM
C=C1[C@H]2O[C@H]2[C@H](OC(C)=O)[C@@]2(C)[C@@H](OC(C)=O)CC[C@]3(CO3)[C@@H]2[C@H](OC(C)=O)[C@]2(O)[C@@H](C)C(=O)O[C@H]2[C@H]1Cl | 29% | > 100 µM | > 100 µM
C=C1C[C@H](OC(C)=O)[C@H](OC(C)=O)[C@]2(C)[C@@H](OC(C)=O)/C=C/C(=C)[C@H](Cl)[C@@H]3OC(=O)[C@H](C)[C@@]3(O)[C@@H](OC(C)=O)[C@@H]12 [FRAJUNOLIDE H] | 25% | > 100 µM | > 100 µM
C=C1[C@H](Cl)[C@@H]2OC(=O)[C@H](C)[C@]23O[C@@H]1[C@@H](O)[C@H](OC(C)=O)[C@@]1(C)[C@@H](OC(C)=O)CC[C@]2(CO2)[C@@H]1[C@@H]3OC(C)=O | 0% | > 100 µM | > 100 µM

Compound | inhibition at 10 µM (Hepatitis B virus) | CC50 at 72 h [1] | CC50 at 72 h [2]
C=C1CC[C@H](OC(C)=O)[C@]2(C)[C@@H](OC(C)=O)C[C@@]3(O)O[C@@]4([C@H](C=C3CO)OC(=O)[C@@H]4C)[C@@H](OC(C)=O)[C@@H]12 | 0% | > 100 µM | > 100 µM
C=C1CC[C@H](OC(C)=O)[C@]2(C)[C@@H](OC(C)=O)C[C@@H](OC(C)=O)/C(CO)=C\[C@@H]3OC(=O)[C@H](C)[C@@]3(O)[C@@H](OC(C)=O)[C@@H]12 | 0% | > 100 µM | > 100 µM
C=C1/C=C\[C@H](OC(C)=O)[C@@]2(C)[C@@H](OC(C)=O)CC[C@]3(CO3)[C@@H]2[C@H](OC(C)=O)[C@]2(O)[C@@H](C)C(=O)O[C@H]2[C@H]1Cl | 0% | > 100 µM | > 100 µM
C=C1CC[C@H](OC(C)=O)[C@]2(C)[C@@H](OC(=O)COC(C)=O)/C=C\C(=C)[C@H](Cl)[C@@H]3OC(=O)[C@H](C)[C@@]3(O)[C@@H](OC(C)=O)[C@@H]12 | 6% | > 100 µM | > 100 µM
C=C1CC[C@H](OC(C)=O)[C@]2(C)[C@@H](OC(C)=O)C[C@@H](OC(C)=O)/C(CCl)=C\[C@@H]3OC(=O)[C@H](C)[C@@]3(O)[C@@H](OC(C)=O)[C@@H]12 | 0% | > 100 µM | > 100 µM
C=C1/C=C/[C@H](OC(C)=O)[C@@]2(C)[C@@H](OC(C)=O)[C@@H](OC(C)=O)C[C@]3(CO3)[C@@H]2[C@H](OC(C)=O)[C@]2(O)[C@@H](C)C(=O)O[C@H]2[C@H]1Cl [FRAJUNOLIDE I] | 41% | > 100 µM | > 100 µM
CC(=O)OCC(=O)O[C@H]1/C=C\C(COC(C)=O)=C/[C@@H]2OC(=O)[C@H](C)[C@@]2(O)[C@@H](OC(C)=O)[C@H]2[C@]3(CC[C@H](OC(C)=O)[C@]12C)CO3 | 0% | > 100 µM | > 100 µM
C=C1/C=C/[C@H](OC(=O)CC)[C@@]2(C)[C@@H](OC(C)=O)[C@@H](OC(C)=O)C[C@]3(CO3)[C@@H]2[C@H](OC(C)=O)[C@]2(O)[C@@H](C)C(=O)O[C@H]2[C@H]1Cl | 0% | > 100 µM | > 100 µM
C=C1[C@@H](OC(C)=O)C[C@H](OC(C)=O)[C@]2(C)[C@@H](OC(C)=O)C[C@@H](OC(C)=O)/C(C)=C\[C@@H]3OC(=O)[C@H](C)[C@@]3(O)[C@@H](OC(C)=O)[C@@H]12 | 0% | > 100 µM | > 100 µM
Nc1ccn([C@@H]2CS[C@H](CO)O2)c(=O)n1 [LAMIVUDINE] | 70% |  | 
C=C1CC[C@H](OC(C)=O)[C@@]2(C)[C@H]1[C@H](OC(C)=O)[C@@]13O[C@@H](C(=C)[C@H](Cl)[C@@H]1OC(=O)[C@@H]3C)[C@@H](OC(C)=O)[C@@H]2OC(C)=O | 27% | > 100 µM | > 100 µM
C=C1CC[C@H](OC(C)=O)[C@]2(C)[C@@H](OC(C)=O)C[C@@]3(O)O[C@]4([C@@H](C)C(=O)O[C@H]4[C@@H](Cl)C3=C)[C@@H](OC(C)=O)[C@@H]12 | 40% | > 100 µM | > 100 µM
C=C1CC[C@H](OC(C)=O)[C@@]2(C)[C@H]1[C@H](OC(C)=O)[C@@]13O[C@@H](C(=C)[C@H](Cl)[C@@H]1OC(=O)[C@@H]3C)[C@@H](O)[C@@H]2OC(C)=O | 10% | > 100 µM | > 100 µM
C=C1CC[C@H](OC(C)=O)[C@]2(C)[C@@H](OC(C)=O)/C=C/[C@]3(CO3)[C@H](Cl)[C@@H]3OC(=O)[C@H](C)[C@@]3(O)[C@@H](OC(C)=O)[C@@H]12 | 0% | > 100 µM | > 100 µM
C=C1CC[C@H](OC(=O)CC(C)C)[C@]2(C)[C@@H](OC(C)=O)C[C@@H](OC(C)=O)/C(C)=C\[C@@H]3OC(=O)[C@H](C)[C@@]3(O)[C@@H](OC(C)=O)[C@@H]12 | 0% | > 100 µM | > 100 µM
C=C1CC[C@H](OC(C)=O)[C@]2(C)[C@@H](OC(C)=O)C[C@@H](OC(C)=O)/C(C(=O)OC)=C\[C@@H]3OC(=O)[C@H](C)[C@@]3(O)[C@@H](OC(C)=O)[C@@H]12 | 1% | > 100 µM | > 100 µM
C=C1[C@H](Cl)[C@@H]2OC(=O)[C@H](C)[C@]23O[C@@H]1[C@@H](OC(C)=O)[C@H](OC(C)=O)[C@@]1(C)[C@@H](OC(C)=O)CC[C@]2(CO2)[C@@H]1[C@@H]3OC(C)=O | 17% | > 100 µM | > 100 µM
